Results as given in the supplement of paper PMC10307832.

How the values were obtained:
Experiment in all cases: relative viability (nuclei count vs DMSO), 5 days (fraction); higher = more cells survive
[1] = tested on: LC-2-ad
Method in brief: (§1)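 Lung cancer cell lines were pin-tool dosed in 1536-well plates on the day after seeding, with either a lone drug or a fixed anchor-drug dose plus five library-drug doses (not always all listed) in √10 steps. Nuclei were counted on 4× images after 5 days. Relative viability is the ratio of treated-well to vehicle-well nuclei counts, with each value a median of duplicate plates.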

[2] = tested on: NCI-H2342
Method in brief: as §1

[3] = tested on: NCI-H2228
Method in brief: as §1

[4] = tested on: NCI-H1915
Method in brief: as §1

[5] = tested on: SK-LU-1
Method in brief: as §1

[6] = tested on: HCC-15
Method in brief: as §1

[7] = tested on: LXF-289
Method in brief: as §1

[8] = tested on: SW 1573
Method in brief: as §1

[9] = tested on: NCI-H647
Method in brief: as §1

[10] = tested on: LOU-NH91
Method in brief: as §1

[11] = tested on: NCI-H522
Method in brief: as §1

[12] = tested on: RERF-LC-KJ
Method in brief: as §1

[13] = tested on: PC-3 [JPC-3]
Method in brief: as §1

[14] = tested on: NCI-H1734
Method in brief: as §1

[15] = tested on: NCI-H1975
Method in brief: as §1

[16] = tested on: NCI-H1792
Method in brief: as §1

[17] = tested on: HOP-62
Method in brief: as §1

[18] = tested on: NCI-H358
Method in brief: as §1

[19] = tested on: NCI-H2347
Method in brief: as §1

[20] = tested on: NCI-H460
Method in brief: as §1

[21] = tested on: HCC-78
Method in brief: as §1

[22] = tested on: NCI-H1755
Method in brief: as §1

[23] = tested on: NCI-H2126
Method in brief: as §1

[24] = tested on: A-427
Method in brief: as §1

COc1cc(N2CCC(C(N)=O)CC2)ccc1Nc1nc(N)c(Cl)c(Nc2ccccc2S(=O)(=O)C(C)C)n1 [HG-5-88-01] + Nc1nc2[nH]cc(CCc3ccc(C(=O)N[C@@H](CCC(=O)O)C(=O)O)cc3)c2c(=O)[nH]1 [Pemetrexed] (partner 0.2 µM)
relative viability ([1]; first compound 0.04 µM): 0.257
relative viability ([1]; first compound 0.1265 µM): 0.257
relative viability ([1]; first compound 0.4 µM): 0.259
relative viability ([1]; first compound 1.265 µM): 0.275
relative viability ([1]; first compound 4 µM): 0.267
relative viability ([2]; first compound 0.04 µM): 0.664
relative viability ([2]; first compound 0.1265 µM): 0.769
relative viability ([2]; first compound 0.4 µM): 0.704
relative viability ([2]; first compound 4 µM): 0.856
relative viability ([3]; first compound 0.04 µM): 0.372
relative viability ([3]; first compound 0.1265 µM): 0.237
relative viability ([3]; first compound 0.4 µM): 0.237
relative viability ([3]; first compound 1.265 µM): 0.26
relative viability ([3]; first compound 4 µM): 0.183
relative viability ([4]; first compound 0.04 µM): 0.471
relative viability ([4]; first compound 0.1265 µM): 0.5
relative viability ([4]; first compound 0.4 µM): 0.352
relative viability ([4]; first compound 1.265 µM): 0.541
relative viability ([4]; first compound 4 µM): 0.441
relative viability ([5]; first compound 0.04 µM): 0.919
relative viability ([5]; first compound 0.1265 µM): 0.956
relative viability ([5]; first compound 0.4 µM): 0.925
relative viability ([5]; first compound 1.265 µM): 1.01
relative viability ([5]; first compound 4 µM): 0.866
relative viability ([6]; first compound 0.04 µM): 0.209
relative viability ([6]; first compound 0.1265 µM): 0.221
relative viability ([6]; first compound 0.4 µM): 0.213
relative viability ([6]; first compound 1.265 µM): 0.229
relative viability ([6]; first compound 4 µM): 0.185
relative viability ([7]; first compound 0.04 µM): 0.931
relative viability ([7]; first compound 0.1265 µM): 0.933
relative viability ([7]; first compound 0.4 µM): 0.887
relative viability ([7]; first compound 1.265 µM): 0.93
relative viability ([7]; first compound 4 µM): 0.926
relative viability ([8]; first compound 0.04 µM): 0.871
relative viability ([8]; first compound 0.1265 µM): 0.79
relative viability ([8]; first compound 0.4 µM): 0.689
relative viability ([8]; first compound 1.265 µM): 0.777
relative viability ([8]; first compound 4 µM): 0.823
relative viability ([9]; first compound 0.04 µM): 0.159
relative viability ([9]; first compound 0.1265 µM): 0.194
relative viability ([9]; first compound 1.265 µM): 0.184
relative viability ([9]; first compound 4 µM): 0.157
relative viability ([10]; first compound 0.04 µM): 0.38
relative viability ([10]; first compound 0.1265 µM): 0.44
relative viability ([10]; first compound 0.4 µM): 0.376
relative viability ([10]; first compound 1.265 µM): 0.456
relative viability ([10]; first compound 4 µM): 0.522
relative viability ([11]; first compound 0.04 µM): 0.967
relative viability ([11]; first compound 0.1265 µM): 0.969
relative viability ([11]; first compound 0.4 µM): 1.01
relative viability ([11]; first compound 1.265 µM): 0.841
relative viability ([11]; first compound 4 µM): 0.783
relative viability ([12]; first compound 0.04 µM): 0.521
relative viability ([12]; first compound 0.1265 µM): 0.509
relative viability ([12]; first compound 0.4 µM): 0.448
relative viability ([12]; first compound 1.265 µM): 0.446
relative viability ([12]; first compound 4 µM): 0.239
relative viability ([13]; first compound 0.04 µM): 1.16
relative viability ([13]; first compound 0.1265 µM): 1.1
relative viability ([13]; first compound 0.4 µM): 0.935
relative viability ([13]; first compound 1.265 µM): 0.913
relative viability ([13]; first compound 4 µM): 0.348
relative viability ([14]; first compound 0.04 µM): 0.398
relative viability ([14]; first compound 0.1265 µM): 0.423
relative viability ([14]; first compound 0.4 µM): 0.361
relative viability ([14]; first compound 1.265 µM): 0.391
relative viability ([14]; first compound 4 µM): 0.375
relative viability ([15]; first compound 0.04 µM): 0.27
relative viability ([15]; first compound 0.1265 µM): 0.296
relative viability ([15]; first compound 0.4 µM): 0.273
relative viability ([15]; first compound 1.265 µM): 0.297
relative viability ([15]; first compound 4 µM): 0.203
relative viability ([16]; first compound 0.04 µM): 0.769
relative viability ([16]; first compound 0.1265 µM): 0.825
relative viability ([16]; first compound 0.4 µM): 0.751
relative viability ([16]; first compound 1.265 µM): 0.832
relative viability ([16]; first compound 4 µM): 0.76
relative viability ([17]; first compound 0.04 µM): 0.319
relative viability ([17]; first compound 0.1265 µM): 0.297
relative viability ([17]; first compound 0.4 µM): 0.288
relative viability ([17]; first compound 1.265 µM): 0.381
relative viability ([17]; first compound 4 µM): 0.341
relative viability ([18]; first compound 0.04 µM): 0.145
relative viability ([18]; first compound 0.1265 µM): 0.174
relative viability ([18]; first compound 0.4 µM): 0.162
relative viability ([18]; first compound 1.265 µM): 0.132
relative viability ([18]; first compound 4 µM): 0.148
relative viability ([19]; first compound 0.04 µM): 0.413
relative viability ([19]; first compound 0.1265 µM): 0.399
relative viability ([19]; first compound 0.4 µM): 0.433
relative viability ([19]; first compound 1.265 µM): 0.424
relative viability ([19]; first compound 4 µM): 0.441
relative viability ([20]; first compound 0.04 µM): 0.0629
relative viability ([20]; first compound 0.1265 µM): 0.0611
relative viability ([20]; first compound 0.4 µM): 0.054
relative viability ([20]; first compound 1.265 µM): 0.0633
relative viability ([20]; first compound 4 µM): 0.0701
relative viability ([21]; first compound 0.04 µM): 0.824
relative viability ([21]; first compound 0.1265 µM): 0.814
relative viability ([21]; first compound 0.4 µM): 0.884
relative viability ([21]; first compound 1.265 µM): 0.849
relative viability ([21]; first compound 4 µM): 0.795
relative viability ([22]; first compound 0.04 µM): 0.446
relative viability ([22]; first compound 0.1265 µM): 0.54
relative viability ([22]; first compound 0.4 µM): 0.407
relative viability ([22]; first compound 1.265 µM): 0.43
relative viability ([22]; first compound 4 µM): 0.447
relative viability ([23]; first compound 0.04 µM): 0.644
relative viability ([23]; first compound 0.1265 µM): 0.667
relative viability ([23]; first compound 0.4 µM): 0.68
relative viability ([23]; first compound 1.265 µM): 0.641
relative viability ([23]; first compound 4 µM): 0.452
relative viability ([24]; first compound 0.04 µM): 0.951
relative viability ([24]; first compound 0.1265 µM): 1.01
relative viability ([24]; first compound 0.4 µM): 1
relative viability ([24]; first compound 1.265 µM): 1.02
relative viability ([24]; first compound 4 µM): 0.9

CC(C)Oc1cc(Nc2nc(N[C@@H](C)c3ccc(F)cn3)ncc2Cl)n[nH]1 [AZ23] + CC(=O)c1c(C)c2cnc(Nc3ccc(N4CCNCC4)cn3)nc2n(C2CCCC2)c1=O [Palbociclib] (partner 0.5 µM)
relative viability ([1]; first compound 0.01 µM): 0.593
relative viability ([1]; first compound 0.03162 µM): 0.529
relative viability ([1]; first compound 0.3162 µM): 0.501
relative viability ([2]; first compound 0.01 µM): 0.516
relative viability ([2]; first compound 0.03162 µM): 0.511
relative viability ([2]; first compound 0.3162 µM): 0.509
relative viability ([3]; first compound 0.01 µM): 0.809
relative viability ([3]; first compound 0.03162 µM): 0.811
relative viability ([3]; first compound 0.3162 µM): 0.907
relative viability ([4]; first compound 0.01 µM): 0.571
relative viability ([4]; first compound 0.03162 µM): 0.492
relative viability ([4]; first compound 0.3162 µM): 0.5
relative viability ([5]; first compound 0.03162 µM): 0.416
relative viability ([5]; first compound 0.3162 µM): 0.414
relative viability ([6]; first compound 0.01 µM): 0.881
relative viability ([6]; first compound 0.03162 µM): 0.757
relative viability ([6]; first compound 0.3162 µM): 0.799
relative viability ([7]; first compound 0.01 µM): 0.739
relative viability ([7]; first compound 0.03162 µM): 0.631
relative viability ([7]; first compound 0.3162 µM): 0.534
relative viability ([8]; first compound 0.01 µM): 0.58
relative viability ([8]; first compound 0.03162 µM): 0.467
relative viability ([8]; first compound 0.3162 µM): 0.394
relative viability ([9]; first compound 0.01 µM): 0.408
relative viability ([9]; first compound 0.03162 µM): 0.405
relative viability ([9]; first compound 0.3162 µM): 0.466
relative viability ([10]; first compound 0.01 µM): 0.574
relative viability ([10]; first compound 0.03162 µM): 0.544
relative viability ([10]; first compound 0.3162 µM): 0.546
relative viability ([11]; first compound 0.01 µM): 1.2
relative viability ([11]; first compound 0.03162 µM): 1.01
relative viability ([11]; first compound 0.3162 µM): 0.795
relative viability ([12]; first compound 0.01 µM): 1.13
relative viability ([12]; first compound 0.03162 µM): 1.14
relative viability ([12]; first compound 0.3162 µM): 1.14
relative viability ([13]; first compound 0.01 µM): 0.552
relative viability ([13]; first compound 0.03162 µM): 0.611
relative viability ([13]; first compound 0.3162 µM): 0.536
relative viability ([14]; first compound 0.01 µM): 0.317
relative viability ([14]; first compound 0.03162 µM): 0.366
relative viability ([14]; first compound 0.3162 µM): 0.359
relative viability ([15]; first compound 0.01 µM): 0.534
relative viability ([15]; first compound 0.03162 µM): 0.703
relative viability ([15]; first compound 0.3162 µM): 0.591
relative viability ([16]; first compound 0.01 µM): 0.737
relative viability ([16]; first compound 0.03162 µM): 0.617
relative viability ([16]; first compound 0.3162 µM): 0.645
relative viability ([17]; first compound 0.01 µM): 0.507
relative viability ([17]; first compound 0.03162 µM): 0.467
relative viability ([17]; first compound 0.3162 µM): 0.437
relative viability ([18]; first compound 0.01 µM): 0.129
relative viability ([18]; first compound 0.03162 µM): 0.141
relative viability ([18]; first compound 0.3162 µM): 0.13
relative viability ([19]; first compound 0.01 µM): 0.441
relative viability ([19]; first compound 0.03162 µM): 0.418
relative viability ([19]; first compound 0.3162 µM): 0.398
relative viability ([20]; first compound 0.01 µM): 0.0638
relative viability ([20]; first compound 0.03162 µM): 0.146
relative viability ([20]; first compound 0.3162 µM): 0.127
relative viability ([21]; first compound 0.01 µM): 0.533
relative viability ([21]; first compound 0.03162 µM): 0.463
relative viability ([21]; first compound 0.3162 µM): 0.544
relative viability ([22]; first compound 0.01 µM): 0.472
relative viability ([22]; first compound 0.03162 µM): 0.488
relative viability ([22]; first compound 0.3162 µM): 0.49
relative viability ([23]; first compound 0.01 µM): 0.332
relative viability ([23]; first compound 0.03162 µM): 0.335
relative viability ([23]; first compound 0.3162 µM): 0.342
relative viability ([24]; first compound 0.01 µM): 0.459
relative viability ([24]; first compound 0.03162 µM): 0.524
relative viability ([24]; first compound 0.3162 µM): 0.586
